Test results taken from patent publication US9365499B2, “9-aminomethyl substituted tetracycline compounds” (KBP Biosciences Co., Ltd., priority 2011, dated 2016).
≈ marks a conversion by molar mass, not a printed value.

Key:
Hemophilus influenzae = test: antibacterial activity in vitro, agar dilution method; type: cell-based; details: Haemophilus influenzae; Table 5; MIC90 = 90% inhibitory concentration
Text: (§1) The antibacterial spectrum and in vitro antibacterial activity of the compound of the present invention
(§2) Experimental method: the agar dilution method, with reference to Clinical And Laboratory Standards Institute. Methods for Dilution Antimicrobial Susceptibility Tests for Bacteria That Grow Aerobically; Approved Standard-Seventh Edition. CLSI Document M7-A7. Vol 26, no. 2, Wayne, Pa.: Clinical and Laboratory Standards Institute, 2006.
(§3) Wherein MIC represents the minimum inhibitory concentration, MIC90 represents the 90% inhibitory concentration.

[1] = system: Streptococcus constellatus; test: as above; type: cell-based; details: Table 5, MIC90 = 90% inhibitory concentration
Text: as §1, §2, §3

[2] = system: Methicillin-resistant Staphylococcus aureus (MRSA); test: as above; type: cell-based; details: Table 5, MIC90 = 90% inhibitory concentration
Text: as §1, §2, §3

Acinetobacter baumannii = test: as above; type: cell-based; details: Table 5, MIC90 = 90% inhibitory concentration
Text: as §1, §2, §3

Staphylococcus aureus [3] = test: as above; type: cell-based
Text: as §1, §2, §3

[4] = cited from earlier work
in vivo = test: in vivo; design: species or system male SD rats; details: male, SD, rat
Protocol: Test animals: male SD rats, weighing 180-280 g, purchased from Beijing Vital River Laboratory Animal Technology Co., Ltd.; animal Certificate of Conformity: SCXK (Beijing) 2006-0009. Six rats were tested for each compound. the compounds of the present invention, prepared in accordance with the methods of above Examples, dissolved in physiological saline. tigecycline, dissolved in physiological saline. Administration of the compounds of the present invention: intravenous bolus injection (iv), dose: 5 mg/kg, administrating volume: 5 mL/kg; gavage (po), dose: 5 mg/kg, administrating volume: 5 mL/kg. Administration of tigecycline: gavage (po), dose: 10 mg/kg, administrating volume: 5 mL/kg. Prior to administration help but water fasting for 16 hours, 4 hours after administration to food. Compound 9: iv blood sampling time point: denoted by 0 min before administration, 5 min, 15 min, 30 min, 1 […] after administration; po blood sampling time point: denoted by 0 min before administration, 5 min, 15 min, 30 min, 1 […] after administration; Compound 20: iv blood sampling time point: 5 min, 15 min, 30 min, 1 […] after administration; po blood sampling time point: 10 min, 30 min, 1 […] after administration; Compound 23: iv blood sampling time point: denoted by 0 min before administration, 5 min, 15 min, 30 min, 1 […] after administration; po blood sampling time point: denoted by 0 min before administration, 5 min, 15 min, 30 min, 1 […] after administration; Tigecycline: iv blood sampling time point: 5 min, 15 min, 30 min, 1 h, 2 h, 4 h, 6 h, 8 h after administration; po blood sampling time point: 10 min, 30 min, 1 […] after administration. Each time point is taken around 100 μl whole blood and placed in a heparinized tube, centrifugated at 8000 rpm/min at 4° C. for 6 minutes in a low-temperature high-speed centrifuge to separate plasma, the resulting plasma was frozen at -80° C. refrigerator. Plasma samples analysis: 20 μl of plasma was taken and added 200 μl of internal standard solution, subjected to vortex for 3 minutes, then to centrifugation at 12,000 rpm/min for 5 minutes. 100 μl of supernatant was taken and analyzed using LC-MS/MS. Formula Absolute Bioavailability F%=[AUC](po)×Dose(iv)/[AUC](iv)×Dose(po)

[5] = monkey, oral; cited from earlier work
[6] = male SD rats, 5 mg/kg iv, cited from earlier work
Staphylococcus aureus [7] = test: bactericidal effects in vivo in neutropenic mouse thigh model with Staphylococcus aureus infection; design: species or system mice; details: for change values (24 h vs blank group mean 0 h) / log10 CFU for each thigh, mean ± standard deviations (24 h): 2 dose times, subcutaneous
Protocol: Bactericidal Effects of the Present Compounds In Vivo in Mouse Thigh Model with Staphylococcus aureus Infection SPF grade CD-1 (ICR) female mice housed in SPF environment, weighing 25±2 g, purchased from Beijing Vital River Laboratory Animal Technology Co., Ltd., licensed […] No: SCXK (Beijing) 2006-0009. Staphylococcus aureus: purchased from Shanghai Renji Hospital. Four days before bacterial infection, intraperitoneal (ip) injection of cyclophosphamide 150 mg/kg; 1 day before bacterial infection, intraperitoneal (ip) injection of cyclophosphamide 100 mg/kg; Picked fresh Staphylococcus aureus single colonies which were plate cultured for 18 h, and inoculated into broth and cultured at 35° C. for 18 h. The bacterial suspension was diluted with broth, and 0.5 McFarland turbidity standard indicator bacteria suspension was prepared with a McFarland turbiditor, 10-fold diluted with broth and injected into the thigh muscle of mice in an amount of 0.1 mL for each thigh. The concentration of the bacteria suspension was about 10^6-10^7 CFU/ml. The inoculum concentration was determined by an agar-plate count method. Blank Group: the animals were sacrificed by dislocation at 2 h (recorded as 0 h) after the inoculation of bacteria. Solvent group: The first administration time was set at 2 h (denoted as 0 h) after the animals were infected with bacteria, the solvent was subcutaneously administrated, the animals were sacrificed by dislocation at 24 h after the administration. Treatment group: The first administration time was set at 2 h (denoted as 0 h). […] The thigh muscle tissue was separated from the sacrificed animals, and 5 mL of sodium chloride injection was added, homogenated. The homogenate obtained were diluted series, taken 0.05 mL and inoculated to agar plates, two plates were inoculated in parallel for each gradient bacterial suspension, and incubated at 35° C. for 18 h. Observe the growth of the colonies on each plate, and select the plates with the number of colonies between 30-300 for colony count. The number of colonies was recorded as n1, n2. N represents the diluted fold. The number of colonies (units CFU) for each thigh was calculated according to the formula of “(n1+n2)/2/0.05×5×N”. A logarithm to the base 10 for the number of colonies of each thigh was calculated to obtain log10 CFU value for each thigh.

MIC90 (Hemophilus influenzae): 0.5 µg/mL (≈ 0.854 µM) | MIC90 [1]: 0.25 µg/mL (≈ 0.427 µM) | MIC90 [2]: 1 µg/mL (≈ 1.71 µM) | MIC90 (Acinetobacter baumannii): 4 µg/mL (≈ 6.83 µM) | MIC90 (Staphylococcus aureus [3]; Staphylococcus aureus, Table 5, MIC90 = 90% inhibitory concentration): 0.5 µg/mL (≈ 0.854 µM) | MIC (Staphylococcus aureus [3]; Table 10, Staphylococcus aureus of the thigh model): 0.25 µg/mL (≈ 0.427 µM) | AUC(0-inf) (in vivo; iv, 5 mg/kg): 5120 ng·h/mL | Vd (in vivo; iv, 5 mg/kg): 4.47 L/kg | clearance (in vivo; iv, 5 mg/kg): 16.5 mL/min/kg | half-life (in vivo; iv, 5 mg/kg): 3.8 h | AUC(0-inf) (in vivo; po, 10 mg/kg): 296 ng·h/mL | Cmax (in vivo; po, 10 mg/kg): 31.8 ng/mL | Tmax (in vivo; po, 10 mg/kg): 0.5 h | bioavailability (in vivo; po, 10 mg/kg): 1.8%
Structure (SMILES): CN(C)c1cc(NC(=O)CNC(C)(C)C)c(O)c2c1C[C@H]1C[C@H]3[C@H](N(C)C)C(O)=C(C(N)=O)C(=O)[C@@]3(O)C(O)=C1C2=O [tigecycline]
absorption in an oral use [4]: can not be absorbed in an oral use | absorption in vivo when orally used [5]: can not be absorbed in vivo when orally used | AUC ([6]; time 0-24 h): 3550 ng·h/mL | T1/2 [6]: 1 h | change values (24 h vs blank group mean 0 h) (Staphylococcus aureus [7]; 2 mg/kg/day): 1.63 log10 CFU | log10 CFU for each thigh, mean ± standard deviations (24 h) (Staphylococcus aureus [7]; 2 mg/kg/day): 8.02 ± 0.24 log10 CFU | bacteria growing values of each thigh (Staphylococcus aureus [7]; 6 mg/kg/day): 0.63 | bactericidal effect against Staphylococcus aureus in vivo in mice (Staphylococcus aureus [7]; 6 mg/kg/day): did not show bactericidal effect | change values (24 h vs blank group mean 0 h) (Staphylococcus aureus [7]; 6 mg/kg/day): 0.63 log10 CFU | log10 CFU for each thigh, mean ± standard deviations (24 h) (Staphylococcus aureus [7]; 6 mg/kg/day): 7.02 ± 0.43 log10 CFU | change values (24 h vs blank group mean 0 h) (Staphylococcus aureus [7]; 18 mg/kg/day): −2.19 log10 CFU | log10 CFU for each thigh, mean ± standard deviations (24 h) (Staphylococcus aureus [7]; 18 mg/kg/day): 4.20 ± 0.25 log10 CFU
